# Measured values published in patent US9006143B2, “Synergistic fungicidal active substance combinations” (Bayer Intellectual Property GmbH, priority 2003, dated 2015).
# Where two headings read alike, the source gives them in different places.
# What was measured:
# [1] = test system: Erysiphe graminis f.sp. hordei; test: Erysiphe test (barley)/protective; type: in vivo; details: single active compound, application rate 12.5 g/ha, protective, evaluation 6 days after inoculation
# [2] = test system: Gibberella zeae; type: in vivo; details: single active compound, application rate 62.5 g/ha; barley, curative, evaluation 6 days after inoculation
# [3] = test system: Sphaerotheca fuliginea; test: Sphaerotheca fuliginea test (cucumber)/protective; type: in vivo; details: protective, 7 days after inoculation; for pest or weed control at 2 g/ha: application rate 2 g/ha
# [4] = test system: Alternaria solani; test: Alternaria solani test (tomato)/protective; type: in vivo; details: protective, 3 days after inoculation
# [5] = test system: Phytophthora infestans; type: in vivo; details: tomato, protective, 3 days after inoculation
# [6] = test system: Alternaria mali; test: Alternaria mali test (in vitro)/microtitre plates; type: cell-based; details: microtitre plates, 5 days of incubation
# [7] = test system: Septoria tritici; test: Septoria tritici test (in vitro)/microtitre plates; type: cell-based; details: single active compound, application rate 0.01 ppm, microtitre plates, 7 days of incubation
# Source text: For inoculation, a spore suspension of Septoria tritici is used.
# [8] = test system: Sphaerotheca fuliginea; test: Sphaerotheca fuliginea test (gherkin)/protective; type: in vivo; details: protective, 21 days after inoculation, application rate 8 ppm
# [9] = test system: Puccinia recondita; test: Puccinia test (wheat)/curative; details: single active compound, application rate 62.5 g/ha, curative, evaluation 8 days after inoculation
# Protocol: Puccinia Test (Wheat)/Curative
# To test for curative activity, young plants are sprayed with a conidia suspension of Puccinia recondita. The plants remain in an incubation cabinet at 20° C. and 100% relative atmospheric humidity for 48 hours.
# The plants are placed in a greenhouse at a temperature of about 20° C. and a relative atmospheric humidity of about 80% to promote the development of rust pustules.
# Evaluation is carried out 8 days after the inoculation.
# [10] = test system: Botrytis cinerea; test: Botrytis cinerea test (bean)/protective; details: single active compound, application rate 5 g/ha, protective, evaluation 2 days after inoculation
# Protocol: After the spray coating has dried on, 2 small pieces of agar colonized by Botrytis cinerea are placed onto each leaf. The inoculated plants are placed in a darkened chamber at about 20° C. and 100% relative atmospheric humidity.
# The size of the infected areas on the leaves is evaluated 2 days after the inoculation.
# [11] = test system: Pyrenophora teres; test: Pyrenophora teres test (barley)/curative; details: single active compound, application rate 25 g/ha, curative, evaluation 12 days after inoculation
# Protocol: Pyrenophora teres Test (Barley)/Curative
# To test for curative activity, young plants are sprayed with a conidia suspension of Pyrenophora teres. The plants remain in an incubation cabinet at 20° C. and 100% relative atmospheric humidity for 48 hours.
# The plants are placed in a greenhouse at a temperature of about 20° C. and a relative atmospheric humidity of about 80%.
# Evaluation is carried out 12 days after the inoculation.
# [12] = test system: Rhizoctonia solani; test: Rhizoctonia solani test (in vitro)/microtitre plates; details: microtitre plates, 5 days of incubation
# Protocol: Rhizoctonia solani Test (in vitro)/Microtitre Plates
# The microtest is carried out in microtitre plates using potato dextrose broth (PDB) as liquid test medium.
# For inoculation, a mycelium suspension of Rhizoctonia solani is used. After 5 days of incubation in the dark and with shaking (10 Hz), for each filled cavity of the microtitre plates, the light transmittance is determined with the aid of a spectrophotometer.
# [13] = Podosphaera fuliginea, 168 h, application rate 0.5 g/ha, read-out: Efficacy in % found
# [14] = Podosphaera fuliginea, 168 h, application rate 1 g/ha, read-out: Efficacy in % found
# [15] = Podosphaera fuliginea, 168 h, read-out: Efficacy in % found
# [16] = Podosphaera fuliginea, 168 h, application rate 20 g/ha, read-out: Efficacy in % found
smiles,measurement,setting,value
"Cn1cc(C(=O)Nc2ccc(F)cc2-c2ccc(Cl)c(Cl)c2)c(C(F)F)n1 [(1-1), N-(3′,4′-dichloro-5-fluoro-1,1′-biphenyl-2-yl)-3-(difluoromethyl)-1-methyl-1H-pyrazole-4-carboxamide]",Efficacy in % found,[1],0%
same,Efficacy in % found,[2],40%
same,pest or weed control at 0.5 g/ha,[3]; [13],0%
same,pest or weed control at 1 g/ha,[3]; [14],16%
same,pest or weed control at 2 g/ha,[3]; [15],36%
same,pest or weed control at 4 g/ha,"[3]; Podosphaera fuliginea, 168 h, application rate 4 g/ha, read-out: Efficacy in % found",30%
same,Efficacy in % found,[4]; application rate 0.5 g/ha,42%
same,Efficacy in % found,[4]; application rate 1 g/ha,61%
same,Efficacy in % found,[5]; application rate 0.5 g/ha,0%
same,Efficacy in % found,[5]; application rate 1 g/ha,0%
same,Efficacy in % found,[5]; application rate 5 g/ha,0%
same,Efficacy in % found,[5]; application rate 10 g/ha,0%
same,Efficacy in % found,[6]; 0.003 ppm,25%
same,Efficacy in % found,[6]; 0.03 ppm,51%
same,Efficacy in % found,[7],15%
same,Efficacy in % found,[8],60%
same,Efficacy in % found,[9],22%
same,Efficacy in % found,[10],54%
same,Efficacy in % found,[11],43%
same,Efficacy in % found,[12]; 0.1 ppm,40%
same,Efficacy in % found,[12]; 0.3 ppm,80%
"Cc1nc(C(F)F)c(C(=O)Nc2ccccc2-c2ccc(Br)cc2)s1 [(1-7), N-(4′-bromo-1,1′-biphenyl-2-yl)-4-(difluoromethyl)-2-methyl-1,3-thiazole-5-carboxamide]",pest or weed control at 0.5 g/ha,[3]; [13],0%
same,pest or weed control at 1 g/ha,[3]; [14],0%
same,pest or weed control at 2 g/ha,[3]; [15],0%
same,Efficacy in % found,[4]; application rate 0.5 g/ha,28%
same,Efficacy in % found,[4]; application rate 1 g/ha,63%
CO/C=C(\C(=O)OC)c1ccccc1Oc1cc(Oc2ccccc2C#N)ncn1 [(2-1) azoxystrobin],Efficacy in % found,[3]; application rate 0.5 g/ha,20%
"CO/N=C(/C1=NOCCO1)c1ccccc1Oc1ncnc(Oc2ccccc2Cl)c1F [(2-2) fluoxastrobin, fluoxastrobin, reference compound]",pest or weed control at 1 g/ha,[3]; [14],0%
same,Efficacy in % found,[11],0%
"CNC(=O)/C(=N/OC)c1ccccc1Oc1ncnc(Oc2cccc(Cl)c2C)c1F [(2-3), (2E)-2-(2-{[6-(3-chloro-2-methylphenoxy)-5-fluoro-4-pyrimidinyl]oxy}phenyl)-2-(methoxyimino)-N-methylethanamide, reference compound]",Efficacy in % found,[4]; application rate 0.5 g/ha,22%
"CO/N=C(/C(=O)OC)c1ccccc1CO/N=C(\C)c1cccc(C(F)(F)F)c1 [(2-4) trifloxystrobin, trifloxystrobin, reference compound]",Efficacy in % found,[1],78%
same,pest or weed control at 2 g/ha,[3]; [15],10%
"CO/C=C(/C(=O)OC)c1ccccc1COc1cccc(C(F)(F)F)n1 [(2-11) picoxystrobin, picoxystrobin]",Efficacy in % found,[9],78%
"COC(=O)N(OC)c1ccccc1COc1ccn(-c2ccc(Cl)cc2)n1 [(2-12) pyraclostrobin, pyraclostrobin, reference compound]",Efficacy in % found,[2],80%
same,pest or weed control at 2 g/ha,[3]; [15],0%
CCCC1COC(Cn2cncn2)(c2ccc(Cl)cc2Cl)O1 (centres unmarked) [(3-3) propiconazole],Efficacy in % found,[4]; application rate 0.5 g/ha,3%
"Fc1ccc(C2(Cn3cncn3)OC2c2ccccc2Cl)cc1 (centres unmarked) [(3-12) epoxyconazole, epoxiconazole]",Efficacy in % found,[2],0%
"OC(Cc1ccccc1Cl)(Cn1ncnc1S)C1(Cl)CC1 (centres unmarked) [(3-15) prothioconazole, prothioconazole, reference compound]",Efficacy in % found,[1],67%
same,pest or weed control at 1 g/ha,[3]; [14],43%
"CC(C)(C)C(O)(CCc1ccc(Cl)cc1)Cn1cncn1 (centres unmarked) [(3-17) tebuconazole, tebuconazole, reference compound]",pest or weed control at 1 g/ha,[3]; [14],10%
same,Efficacy in % found,[11],29%
CC(C)(C)C(O)C(Oc1ccc(-c2ccccc2)cc1)n1cncn1 (centres unmarked) [(3-21) bitertanol],Efficacy in % found,[3]; application rate 1 g/ha,0%
Cc1ccc(N(SC(F)(Cl)Cl)S(=O)(=O)N(C)C)cc1 [(4-2) tolylfluanid],Efficacy in % found,[3]; application rate 20 g/ha,0%
same,Efficacy in % found,[5]; application rate 10 g/ha,0%
Cc1ccc(C(C)NC(=O)[C@@H](NC(=O)OC(C)C)C(C)C)cc1 (some centres unmarked) [(5-1) iprovalicarb],Efficacy in % found,[5]; application rate 5 g/ha,61%
same,Efficacy in % found,[5]; application rate 10 g/ha,64%
CC(C)OC(=O)N[C@H](C(=O)N[C@H](C)c1nc2ccc(F)cc2s1)C(C)C [(5-3) benthiavalicarb],Efficacy in % found,[4]; application rate 1 g/ha,5%
same,Efficacy in % found,[5]; application rate 0.5 g/ha,56%
O=C(Nc1ccccc1-c1ccc(Cl)cc1)c1cccnc1Cl [(6-2) boscalid],Efficacy in % found,[8],50%
CC1(C(=O)Nc2ccc(O)c(Cl)c2Cl)CCCCC1 [(6-6) fenhexamid],Efficacy in % found,[3]; application rate 20 g/ha,0%
"N#Cc1ccccc1NC(=O)c1snc(Cl)c1Cl [(6-11), 3,4-dichloro-N-(2-cyanophenyl)isothiazole-5-carboxamide]",Efficacy in % found,[9],0%
CC(C)CC(C)c1sccc1NC(=O)c1cn(C)nc1C(F)(F)F (centres unmarked) [(6-14) penthiopyrad],Efficacy in % found,[3]; application rate 4 g/ha,0%
"CC(C)CC(C)c1sccc1NC(=O)c1cn(C)nc1C(F)(F)F (centres unmarked) [(6-14), penthiopyrad]",Efficacy in % found,[9],44%
COCC(=O)N(c1c(C)cccc1C)[C@H](C)C(=O)OC [(8-4) metalaxyl-M],Efficacy in % found,[4]; application rate 0.5 g/ha,7%
COC(=O)[C@@H](C)N(C(=O)Cc1ccccc1)c1c(C)cccc1C [(8-5) benalaxyl-M],Efficacy in % found,[4]; application rate 0.5 g/ha,14%
"Cc1cc(C)nc(Nc2ccccc2)n1 [(9-3) pyrimethanil, pyrimethanil, reference compound]",pest or weed control at 20 g/ha,[3]; [16],0%
same,Efficacy in % found,[10],4%
COC(=O)Nc1nc2ccccc2[nH]1 [(10-3) carbendazim],Efficacy in % found,[6]; 0.03 ppm,15%
CCCOC(=O)NCCCN(C)C [(11-2) propamocarb],Efficacy in % found,[12]; 0.1 ppm,25%
"CC(C)NC(=O)N1CC(=O)N(c2cc(Cl)cc(Cl)c2)C1=O [(12-4) iprodione, iprodione, reference compound]",pest or weed control at 20 g/ha,[3]; [16],0%
same,Efficacy in % found,[10],13%
"[O-][n+]1nc(-n2ccnc2)nc2ccc(Cl)cc21 [(14-3) triazoxide, triazoxide, reference compound]",Efficacy in % found,[7],29%
CCO[PH](=O)[O-].CCO[PH](=O)[O-].CCO[PH](=O)[O-].[Al+3] [(17-1) fosetyl-Al],Efficacy in % found,[12]; 0.3 ppm,24%
N#Cc1c(Cl)c(Cl)c(Cl)c(C#N)c1Cl [(19-2) chlorothalonil],Efficacy in % found,[3]; application rate 20 g/ha,0%
CSC1=N[C@@](C)(c2ccccc2)C(=O)N1Nc1ccccc1 [(19-3) fenamidone],Efficacy in % found,[6]; 0.003 ppm,2%
"CCCN(CC)CC1COC2(CCC(C(C)(C)C)CC2)O1 (centres unmarked) [(19-10) spiroxamine, spiroxamine, reference compound]",pest or weed control at 20 g/ha,[3]; [16],0%
same,Efficacy in % found,[9],0%
CSC1=N[C@@](C)(c2ccccc2)C(=O)N1Nc1ccccc1 [(19-13) fenamidone],Efficacy in % found,[5]; application rate 0.5 g/ha,41%
O=C(Nc1ccccc1)N(Cc1ccc(Cl)cc1)C1CCCC1 [(20-1) pencycuron],Efficacy in % found,[6]; 0.003 ppm,11%
"C[C@H](Nc1c(-c2c(F)cc(F)cc2F)c(Cl)nc2ncnn12)C(F)(F)F [(22-1), 5-chloro-N-[(1S)-2,2,2-trifluoro-1-methylethyl]-6-(2,4,6-trifluorophenyl)[1,2,4]triazolo-[1,5-a]pyrimidine-7-amine, reference compound]",pest or weed control at 2 g/ha,[3]; [15],11%
"CC(C)[C@@H](C)Nc1c(-c2c(F)cc(F)cc2F)c(Cl)nc2ncnn12 [(22-2), 5-chloro-N-[(1R)-1,2-dimethylpropyl]-6-(2,4,6-trifluorophenyl)[1,2,4]triazolo[1,5-a]-pyrimidine-7-amine, reference compound]",pest or weed control at 1 g/ha,[3]; [14],22%
